# Data as given in patent publication US20250231178A1, “A BIOMARKER FOR DETERMINING ALZHEIMER'S DISEASE” (UNIVERSITY OF EASTERN FINLAND, priority 2022, published 2025).
# Key:
# [1] = target: T1, PIEZO1 receptor in red blood cells (RBCs) (Homo sapiens, UniProt Q92508); assay: Yoda1-induced Ca flux in red blood cells, Fluo4 am, flow cytometry (FACS) time-lapse; assay type: cell-based; conditions: for normalized MFI levels (Fluo4 am median fluorescence intensity normalized on baseline): 10 μM Yoda1, 60 s of recording
# T1 construct: indicating the Ca^2+ influx into the red blood cells (RBCs) through PIEZO1 ion channels; endogenous in cells; host or cells: Red blood cells from venous blood of healthy, MCI and AD donors
# T1 sequence (Q92508 whole entry): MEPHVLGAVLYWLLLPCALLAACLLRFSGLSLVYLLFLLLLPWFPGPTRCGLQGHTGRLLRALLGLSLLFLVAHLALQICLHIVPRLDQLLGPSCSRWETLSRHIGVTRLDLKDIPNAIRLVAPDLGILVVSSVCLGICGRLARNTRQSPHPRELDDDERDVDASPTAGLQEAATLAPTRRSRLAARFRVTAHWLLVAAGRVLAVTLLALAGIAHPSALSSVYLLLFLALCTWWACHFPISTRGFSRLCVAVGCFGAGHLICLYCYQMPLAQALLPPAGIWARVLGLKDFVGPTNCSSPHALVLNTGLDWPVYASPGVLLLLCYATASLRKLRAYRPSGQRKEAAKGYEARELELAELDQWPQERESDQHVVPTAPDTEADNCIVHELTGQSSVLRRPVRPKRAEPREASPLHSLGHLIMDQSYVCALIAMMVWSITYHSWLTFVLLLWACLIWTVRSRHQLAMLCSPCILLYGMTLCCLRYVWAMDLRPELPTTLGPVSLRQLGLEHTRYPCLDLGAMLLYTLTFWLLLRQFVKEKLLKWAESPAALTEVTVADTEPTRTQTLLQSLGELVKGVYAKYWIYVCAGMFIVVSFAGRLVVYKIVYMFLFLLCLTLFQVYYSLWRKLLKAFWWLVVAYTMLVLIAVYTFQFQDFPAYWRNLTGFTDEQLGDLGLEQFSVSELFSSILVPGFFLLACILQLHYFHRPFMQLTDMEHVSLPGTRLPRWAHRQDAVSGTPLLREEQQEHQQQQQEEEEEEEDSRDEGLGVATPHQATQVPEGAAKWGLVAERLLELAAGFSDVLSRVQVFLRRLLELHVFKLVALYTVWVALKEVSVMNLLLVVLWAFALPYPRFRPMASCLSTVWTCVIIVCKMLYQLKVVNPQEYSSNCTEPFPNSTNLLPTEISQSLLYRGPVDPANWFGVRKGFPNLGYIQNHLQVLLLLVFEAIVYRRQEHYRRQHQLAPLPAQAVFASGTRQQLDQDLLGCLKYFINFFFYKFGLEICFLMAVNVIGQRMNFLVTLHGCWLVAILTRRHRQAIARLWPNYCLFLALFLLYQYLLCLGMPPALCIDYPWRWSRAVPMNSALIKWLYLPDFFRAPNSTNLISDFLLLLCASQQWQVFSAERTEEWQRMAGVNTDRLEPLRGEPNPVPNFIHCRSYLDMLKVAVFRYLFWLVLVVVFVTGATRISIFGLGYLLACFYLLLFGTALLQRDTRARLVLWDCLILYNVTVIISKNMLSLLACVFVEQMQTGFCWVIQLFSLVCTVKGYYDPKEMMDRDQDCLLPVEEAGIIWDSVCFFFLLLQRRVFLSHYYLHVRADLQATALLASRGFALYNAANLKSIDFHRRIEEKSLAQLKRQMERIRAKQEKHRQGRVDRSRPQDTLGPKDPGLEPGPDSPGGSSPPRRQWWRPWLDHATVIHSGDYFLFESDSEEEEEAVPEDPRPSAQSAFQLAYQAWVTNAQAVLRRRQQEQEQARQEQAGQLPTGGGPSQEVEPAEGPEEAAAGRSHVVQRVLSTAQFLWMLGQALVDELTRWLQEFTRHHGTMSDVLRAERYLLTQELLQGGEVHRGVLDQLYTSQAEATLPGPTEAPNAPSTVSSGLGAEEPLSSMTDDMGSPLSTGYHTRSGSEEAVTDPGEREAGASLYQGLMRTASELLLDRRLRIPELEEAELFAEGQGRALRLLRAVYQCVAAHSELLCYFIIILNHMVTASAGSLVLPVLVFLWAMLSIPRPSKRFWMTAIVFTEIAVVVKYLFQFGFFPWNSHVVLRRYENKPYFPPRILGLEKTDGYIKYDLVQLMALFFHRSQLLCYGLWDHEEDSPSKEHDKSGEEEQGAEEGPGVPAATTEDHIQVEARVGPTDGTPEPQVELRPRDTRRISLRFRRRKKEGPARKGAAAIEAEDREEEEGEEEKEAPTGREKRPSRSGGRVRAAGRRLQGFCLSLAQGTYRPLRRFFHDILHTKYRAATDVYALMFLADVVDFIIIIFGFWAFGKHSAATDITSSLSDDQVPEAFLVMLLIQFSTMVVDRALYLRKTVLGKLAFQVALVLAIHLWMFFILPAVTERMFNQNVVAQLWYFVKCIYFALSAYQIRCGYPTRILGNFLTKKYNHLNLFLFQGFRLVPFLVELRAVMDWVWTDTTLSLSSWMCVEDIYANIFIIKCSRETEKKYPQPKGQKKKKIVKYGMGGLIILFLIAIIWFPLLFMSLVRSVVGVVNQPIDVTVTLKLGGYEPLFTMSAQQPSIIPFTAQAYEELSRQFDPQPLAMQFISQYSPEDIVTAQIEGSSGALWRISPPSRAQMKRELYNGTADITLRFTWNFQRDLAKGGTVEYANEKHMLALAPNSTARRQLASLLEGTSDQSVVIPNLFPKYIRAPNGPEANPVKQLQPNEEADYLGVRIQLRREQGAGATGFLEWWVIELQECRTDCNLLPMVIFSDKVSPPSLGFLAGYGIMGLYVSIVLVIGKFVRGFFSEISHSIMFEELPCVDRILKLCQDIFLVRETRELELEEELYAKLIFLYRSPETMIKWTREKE
# Description: The venous blood samples from healthy subjects, patients with mild cognitive impairment (MCI), and patients with Alzheimer's disease (AD) were collected into BD Vacutainer® blood collection tubes containing the K3-EDTA anti-coagulant. 150 μl of whole blood was taken for further processing, washed two times with 10 ml of phosphate-buffered saline (PBS) (5 mins, 300 g, RT (=about 20-25° C.) to remove plasma. After the second wash, the supernatant was removed and 50 μl of red blood cells (RBCs) were transferred to clean falcon tube and resuspended in 200 μl PBS (250 μl total volume of cell suspension). 250 μl of Fluo4 am AM (Thermo Fisher Scientific) fluorescent dye was added and cells were incubated for 30 minutes at 37° C. in dark.
# After the incubation, cell suspension was washed twice with 5 ml of PBS, followed by one wash with HBSS (5 mins, 300 g, RT). Supernatant was carefully removed with pipette and 50 μl pellet was resuspended in 450 μl of Hank's Balanced Salt Solution (HBSS) to form 10% cell suspension. 10 μl of 10% cell suspension was transferred to 390 μl of RPMI/FBS (10:1) (400 μl final volume). This cell suspension was further used for flow cytometry time-lapse assessment using CytoFLEX S flow cytometer (Beckman Coulter, USA).
# At the start of the recording, at t=0 seconds, baseline fluorescence was recorded for 20 seconds. At t=20 seconds, Yoda1 in DMSO was applied to the sample at the final concentration of 5 or 10 μM. At t=4 minutes and 20 seconds, ionomycin, serving as the positive control, was applied at the final concentration 10 μM. Recording was finished at t=5 minutes 30 seconds.
# FIGS. 3A-3C plot the mean values of Ca^2+ signal for each group with 10 μM Yoda1 spanning from BL (t=0 seconds) to t=4 minutes, while the FIGS. 3D-3F show the measurements of individual samples at t=60 seconds.
# All flow cytometric data were analyzed using CytExpert Software v 2.4 (Beckman Coulter Inc., CA, USA). Yoda1-induced Ca flux was measured by using Fluo4 am median fluorescence intensity (MFI) of single cells after Yoda1 application at different time points—baseline (before application of Yoda1 at 10 μM concentrations), and every 20 sec of the recording.
# Data were analyzed using GraphPad Prism Software (CA, USA). Statistical analysis was performed using Mann-Whitney test, two-tailed. The data are presented as mean±SEM.
# [2] = target: T1, PIEZO1 receptor in red blood cells (RBCs); assay: Yoda1-induced Ca flux in red blood cells, Fluo4 am, microtiter plate format and fluorometer; assay type: cell-based; conditions: n=4, mean±SEM, plate reader
# Description: Mann-Whitney test, two-tailed, *p<0.05. […] Signals recorded without addition of Fluo4, with and without Yoda1, were subtracted from their Fluo4 loaded counterparts to give the final read-outs used in normalising the results.
# 300 μL of blood from the healthy persons and AD patients was collected into the blood sampling tubes with sodium citrate to prevent coagulation. The samples were washed twice with PBS buffer (Ca^2+ and Mg^2+ free) by centrifugation at 300 G for 5 minutes. […] of the red blood cell (RBC) pellet was divided into […], 50 μL for fluorescent staining and 50 μL for the negative control. […] The samples were distributed into the microtitration plate (96-wells, 180 μL per well), after which the ground level of fluorescence (485 nm/535 nm, 1.0 s, Victor Wallac) was measured immediately. 20 μL of DMSO (for vehicle control) or 20 μL of 5 μM Yoda1 (for PIEZO1 activity) was added into the wells, and the fluorescence was measured immediately. The fluorescence signal of the sample having no Fluo4 am was subtracted from the fluorescence signals of the vehicle and Yoda1 samples treated with Fluo4 am. The increase in fluorescence upon addition of Yoda1 was normalized to the signal measured before addition of Yoda1. The normalized increase fluorescence was 2.62±0.42 for healthy and 5.64±0.23 for AD (mean #SEM) (FIG. 3G). […]
structure (smiles),measurement,setting,value
"Clc1cccc(Cl)c1CSc1nnc(-c2cnccn2)s1 [Yoda1, 2-[(2,6-Dichlorophenyl)methylsulfanyl]-5-pyrazin-2-yl-1,3,4-thiadiazole]",normalized MFI levels (Fluo4 am median fluorescence intensity normalized on baseline),"[1]; RBCs of AD patients, n=21, mean±SEM",8.57±0.6
same,normalized MFI levels (Fluo4 am median fluorescence intensity normalized on baseline),"[1]; RBCs of MCI patients, n=26, mean±SEM",7.9±0.48
same,normalized MFI levels (Fluo4 am median fluorescence intensity normalized on baseline),"[1]; RBCs of control (healthy) subjects, n=23, mean±SEM",5.64±0.27
same,time at which maximum Fluo4 am MFI levels were reached,"[1]; 10 μM Yoda1 applied at 20 s of recording, levels remained similar till end of 4 min recording",≤ 60 s
same,normalized increase fluorescence (signal after Yoda1 normalized to signal before addition),"[2]; 5 μM Yoda1, RBCs of AD patients",5.64±0.23
same,normalized increase fluorescence (signal after Yoda1 normalized to signal before addition),"[2]; 5 μM Yoda1, RBCs of healthy persons",2.62±0.42
